Converted amounts (≈) assume the structure as drawn. Read-outs that look alike come from different tables or passages of the source.
Key:
[1] = system: H. pylori ATCC 43504 (MTZ-R); assay: MIC/MBC, broth microdilution; assay type: cell-based, Helicobacter pylori; settings: Helicobacter pylori, ATCC43504
Experimental: (§1) The antimicrobial activity of the HsrA inhibitors was evaluated by the determination of the minimal inhibitory concentration (MIC) against four different strains of H. pylori: ATCC 700392 (aka 26695), ATCC 43504 (MTZ-resistant reference strain), ATCC 700684 (CLR-resistant reference strain), and Donostia 2 (LVX-resistant clinical isolate). The MICs were determined by the broth microdilution method, as previously described. Briefly, H. pylori strains were grown in blood agar at 37 °C for 72 h under microaerobic conditions. Fresh inoculums adjusted at OD600 = 0.01 [~10^6 colony forming units (CFU) per mL] in BHI broth supplemented with 4% fetal bovine serum (BHI + FBS) were prepared and immediately exposed to final concentrations between 64 and 0.031 mg/L of each compound of interest. The compound solvent (DMSO) as well as conventional antibiotics (MTZ, CLR, LVX) were included as controls. […] Each experiment was performed twice in triplicate. The MIC and MBC values of the selected compounds against C. jejuni ATCC 33560 were determined by using the same method and culture conditions described for the H. pylori strains.

[2] = system: H. pylori ATCC 700392 (26695); assay: MIC/MBC, broth microdilution; assay type: cell-based, Helicobacter pylori; settings: Helicobacter pylori, ATCC700392
Experimental: as §1

[3] = system: H. pylori ATCC 700684 (CLR-R); assay: MIC/MBC, broth microdilution; assay type: cell-based, Helicobacter pylori; settings: Helicobacter pylori; for MBC: ATCC700684, read-out: MBC; for MIC: ATCC700684, read-out: MIC
Experimental: as §1

[4] = system: H. pylori Donostia 2 (LVX-R); assay: MIC/MBC, broth microdilution; assay type: cell-based, Helicobacter pylori; settings: Helicobacter pylori
Experimental: as §1

[5] = system: C. jejuni ATCC 33560; assay: MIC/MBC, broth microdilution; assay type: cell-based; settings: Campylobacter jejuni, ATCC33560, C. jejuni ATCC 33560
Experimental: as §1

[6] = system: E. coli ATCC 25922; assay: MIC/MBC according to EUCAST guidelines; assay type: cell-based; settings: Escherichia coli, ATCC25922
Experimental: (§2) The antimicrobial activities of the selected compounds against several Gram-negative and Gran-positive representative species of normal human microbiota were determined according to the EUCAST guidelines. Briefly, standardized inoculums (0.5 McFarland) were freshly prepared from overnight Mueller–Hinton agar plates of reference strains E. coli ATCC 25922, K. pneumonia ATCC 700603, E. faecalis ATCC 29212, S. aureus ATCC 29213, S. epidermidis ATCC 12228, and S. agalactiae ATCC 12386. Next, bacterial suspensions adjusted to 5 × 10^5 CFU/mL in Mueller–Hinton broth were exposed to a range of concentrations from 64 to 0.031 mg/L of the selected compounds. DMSO and conventional antibiotics LVX and AMP were included as controls. […] Experiments were performed twice in triplicate.

[7] = system: E. faecalis ATCC 29212; assay: MIC/MBC according to EUCAST guidelines; assay type: cell-based; settings: Enterococcus faecalis, ATCC29212
Experimental: as §2

[8] = system: S. agalactiae ATCC 12386; assay: MIC/MBC according to EUCAST guidelines; assay type: cell-based; settings: Streptococcus agalactiae, ATCC12386
Experimental: as §2

[9] = system: S. aureus ATCC 29213; assay: MIC/MBC according to EUCAST guidelines; assay type: cell-based; settings: Staphylococcus aureus, ATCC29213
Experimental: as §2

[10] = system: S. epidermidis ATCC 12228; assay: MIC/MBC according to EUCAST guidelines; assay type: cell-based; settings: Staphylococcus epidermidis, ATCC12228
Experimental: as §2

[11] = system: K. pneumoniae ATCC 700603; assay: MIC/MBC according to EUCAST guidelines; assay type: cell-based, Klebsiella pneumonia; settings: Klebsiella pneumoniae, ATCC700603
Experimental: as §2

[12] = system: H. pylori ATCC 700392; assay: Checkerboard assay with first-line antibiotics; assay type: cell-based, Helicobacter pylori
Experimental: Potential synergisms between the selected HsrA inhibitors and first-line antibiotics were evaluated by using checkerboard assays, as previous described. Briefly, the antimicrobials to be tested were twofold serially diluted in BHI + FBS using independent sterile microtiter plates. Then, concentration gradients from two antimicrobials were aseptically mixed at equal volumes in a new microtiter plate, resulting in a matrix of 77 unique combinations of both compounds. Next, freshly prepared inoculum of H. pylori ATCC 700392 adjusted at 2 × 10^6 CFU/mL in BHI+ FBS were added to all wells, and plates were incubated for 72 h at 37 °C under microaerophilic conditions. […] The fractional inhibitory concentration index (FICI) for each antimicrobial combination was calculated as previously described. Values of FICI ≤ 0.5, 0.5 < FICI ≤ 1, 1 < FICI ≤ 4, and FICI > 4 were considered as indicative of synergistic, additive, neutral, or antagonist interactions, respectively.

[13] = H. pylori ATCC 43504 (MTZ-R), read-out: MBC
[14] = H. pylori ATCC 43504 (MTZ-R), read-out: MIC
[15] = H. pylori ATCC 700392 (26695), read-out: MBC
[16] = H. pylori ATCC 700392 (26695), read-out: MIC
[17] = H. pylori Donostia 2 (LVX-R), read-out: MBC
[18] = H. pylori Donostia 2 (LVX-R), read-out: MIC
[19] = in combination with CLR (clarithromycin)
[20] = in combination with LVX (levofloxacin)
[21] = in combination with MTZ (metronidazole)

| Structure (SMILES) | MBC [3] [µg/mL] | MIC [3] [µg/mL] | MBC [5] [µg/mL] | MIC [5] [µg/mL] | MBC [6] [µg/mL] | MIC [6] [µg/mL] | MBC [7] [µg/mL] | MIC [7] [µg/mL] | MBC [8] [µg/mL] | MIC [8] [µg/mL] | MBC [9] [µg/mL] | MIC [9] [µg/mL] | MBC [10] [µg/mL] | MIC [10] [µg/mL] | MBC [11] [µg/mL] | MIC [11] [µg/mL] | FICI [12, 19] | FICantibiotic [12, 19] | FICinhibitor [12, 19] | FICI [12, 20] | other results |
| --- | --- | --- | --- | --- | --- | --- | --- | --- | --- | --- | --- | --- | --- | --- | --- | --- | --- | --- | --- | --- | --- |
| N#Cc1cnn(-c2ccc(C(F)(F)F)cc2[N+](=O)[O-])c1N [Ligand I] | 4 (≈ 13.5 µM) | 4 (≈ 13.5 µM) | 32 (≈ 108 µM) | 32 (≈ 108 µM) | > 64 | > 64 | > 64 | > 64 | 64 (≈ 215 µM) | 32 (≈ 108 µM) | > 64 | > 64 | > 64 | > 64 | > 64 | > 64 | 2 | 1 | 1 | 2 | MBC [1, 13]: 1 µg/mL (≈ 3.36 µM); MIC [1, 14]: 1 µg/mL (≈ 3.36 µM); MBC [2, 15]: 4 µg/mL (≈ 13.5 µM); MIC [2, 16]: 4 µg/mL (≈ 13.5 µM); MBC [4, 17]: 2 µg/mL (≈ 6.73 µM); MIC [4, 18]: 2 µg/mL (≈ 6.73 µM); Interaction [12, 19]: Neutral (no interaction or neutral (FICI > 1 to ≤4)); FICantibiotic [12, 20]: 1; FICinhibitor [12, 20]: 1; Interaction [12, 20]: Neutral (no interaction or neutral (FICI > 1 to ≤4)); FICI [12, 21]: 0.625; FICantibiotic [12, 21]: 0.125; FICinhibitor [12, 21]: 0.5; Interaction [12, 21]: Additive (additive (FICI > 0.5 to ≤1)) |
| NC(=NOC(=O)Nc1ccc(Cl)cc1)c1csc([N+](=O)[O-])c1 [Ligand V, N′-{[(4-chloroanilino)carbonyl]}oxy-5-nitrothiophene-3-carboximidamide] | 0.031 (≈ 0.091 µM) | 0.031 (≈ 0.091 µM) | ≤ 0.5 | ≤ 0.5 | > 64 | > 64 | > 64 | > 64 | > 64 | > 64 | > 64 | > 64 | > 64 | > 64 | > 64 | > 64 | 0.56 | 0.5 | 0.06 | 2 | MBC [1]: 0.125 µg/mL (≈ 0.367 µM); MIC [1]: 0.125 µg/mL (≈ 0.367 µM); MBC [2]: 0.125 µg/mL (≈ 0.367 µM); MIC [2]: 0.063 µg/mL (≈ 0.185 µM); MBC [4]: 0.125 µg/mL (≈ 0.367 µM); MIC [4]: 0.125 µg/mL (≈ 0.367 µM); FICantibiotic [12, 20]: 1; FICinhibitor [12, 20]: 1; Interaction [12, 20]: Neutral (no interaction or neutral (FICI > 1 to ≤4)); FICI [12, 21]: 0.625; FICantibiotic [12, 21]: 0.125; FICinhibitor [12, 21]: 0.5 |
| CSc1cccc(Nc2nc(C(C)(C)C)cs2)c1 [Ligand XI] | 4 (≈ 14.4 µM) | 2 (≈ 7.18 µM) | > 64 | > 64 | > 64 | > 64 | 64 (≈ 230 µM) | 64 (≈ 230 µM) | 8 (≈ 28.7 µM) | 8 (≈ 28.7 µM) | 32 (≈ 115 µM) | 16 (≈ 57.5 µM) | 64 (≈ 230 µM) | 16 (≈ 57.5 µM) | > 64 | > 64 | 0.75 | 0.25 | 0.5 | 2 | MBC [1, 13]: 4 µg/mL (≈ 14.4 µM); MIC [1, 14]: 2 µg/mL (≈ 7.18 µM); MBC [2, 15]: 4 µg/mL (≈ 14.4 µM); MIC [2, 16]: 4 µg/mL (≈ 14.4 µM); MBC [4, 17]: 4 µg/mL (≈ 14.4 µM); MIC [4, 18]: 2 µg/mL (≈ 7.18 µM); FICantibiotic [12, 20]: 1; FICinhibitor [12, 20]: 1; Interaction [12, 20]: Neutral (no interaction or neutral (FICI > 1 to ≤4)); FICI [12, 21]: 0.563; FICantibiotic [12, 21]: 0.5; FICinhibitor [12, 21]: 0.063 |

From article PMC11432330, “Novel Drug-like HsrA Inhibitors Exhibit Potent Narrow-Spectrum Antimicrobial Activities against Helicobacter pylori” (International Journal of Molecular Sciences, 2024)
